Measurements reported in patent US20240116985A1, “STAPLED PEPTIDES AND METHODS THEREOF” (priority 2020, published 2024).

Legend:
[1] = target: T1, beta-catenin/TCF4 engagement (Homo sapiens, UniProt P35222); assay: Nano-BRET target engagement assay (B-cat-Halo & TCF4-Luc in HEK293 cells); type: cell-based; conditions: absolute IC50; read-out: NanoBRET Abs IC50
T1 construct: expressed in transfected cells; host or cells: HEK293
T1 sequence (P35222 1-781): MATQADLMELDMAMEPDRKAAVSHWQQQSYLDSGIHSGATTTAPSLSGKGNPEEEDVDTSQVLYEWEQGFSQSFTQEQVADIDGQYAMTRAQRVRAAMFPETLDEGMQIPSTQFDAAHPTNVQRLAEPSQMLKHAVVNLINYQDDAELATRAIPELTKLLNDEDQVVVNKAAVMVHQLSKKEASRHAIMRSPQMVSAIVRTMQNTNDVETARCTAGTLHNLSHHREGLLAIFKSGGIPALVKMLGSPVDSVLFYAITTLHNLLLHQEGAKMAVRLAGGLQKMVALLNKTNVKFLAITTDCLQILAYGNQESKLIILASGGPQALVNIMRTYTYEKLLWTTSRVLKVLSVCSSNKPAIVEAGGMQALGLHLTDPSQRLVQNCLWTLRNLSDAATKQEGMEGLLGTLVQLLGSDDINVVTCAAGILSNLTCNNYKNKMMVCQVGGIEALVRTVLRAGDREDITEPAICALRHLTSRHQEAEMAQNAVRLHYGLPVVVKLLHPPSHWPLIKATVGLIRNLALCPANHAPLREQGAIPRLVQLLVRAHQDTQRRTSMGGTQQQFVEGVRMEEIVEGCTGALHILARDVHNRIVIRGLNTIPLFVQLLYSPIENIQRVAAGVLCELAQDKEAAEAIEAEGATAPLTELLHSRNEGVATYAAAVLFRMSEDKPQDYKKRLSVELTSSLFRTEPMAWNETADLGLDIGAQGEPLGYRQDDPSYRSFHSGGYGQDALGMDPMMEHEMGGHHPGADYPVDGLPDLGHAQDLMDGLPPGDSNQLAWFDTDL

[2] = target: T2, full-length beta-Catenin (Uniprot ID P35222) (Homo sapiens, UniProt P35222); assay: Fluorescence polarization IC50 (beta-catenin / 5FAM-TCF4 10-53 competition); type: binding; conditions: fluorescence polarization; read-out: beta-Catenin FP IC50
T2 construct: 10 nM full-length beta-Catenin (Uniprot ID P35222)
T2 sequence (P35222 1-781): T1 sequence (P35222 1-781)

IC50 [1] [µM] | IC50 [2] [µM] | SMILES
4 | 0.005 | CC(=O)N1CCC[C@]12CC=CCCCC1(CCCC=CCCCOC(=O)N3CC[C@@](C(=O)N[C@@H](Cc4ccccc4C(F)(F)F)C(=O)N[C@@H](Cc4csc5ccccc45)C(=O)N[C@@H](CO)C(N)=O)(C3)NC(=O)[C@H](CC(C)C)NC(=O)[C@H](Cc3ccccc3)NC(=O)[C@H](C)NC(=O)[C@H](C)NC(=O)[C@H](Cn3cc(CC(=O)O)nn3)NC(=O)[C@H](CC(=O)O)NC1=O)NC(=O)[C@H](CC(C)(C)C)NC(=O)[C@H](CC(=O)O)NC2=O (stereo partly drawn) [I-2373, Ac-PL3-Asp-Npg-B5-Asp-[CH2CO2H]TriAzDap-Ala-Ala-Phe-Leu-PyrS2-2F3MeF-BztA-Ser-NH2]
13.5 | 0.005 | CCCc1cn(CCCC[C@H](NC(=O)[C@H](Cc2csc3ccccc23)NC(=O)[C@H](Cc2ccsc2)NC(=O)[C@]23CCN(C2)C(=O)OCCCC=CCCCC2(CCCC=CC[C@]4(CCCN4C(C)=O)C(=O)N[C@@H](CC(=O)O)C(=O)N[C@@H](CC(C)(C)C)C(=O)N2)C(=O)N[C@@H](CC(=O)O)C(=O)N[C@@H](CC(=O)O)C(=O)N[C@@H](C)C(=O)N[C@@H](C)C(=O)N[C@@H](Cc2ccccc2)C(=O)N[C@@H](CC(C)C)C(=O)N3)C(N)=O)nn1 (stereo partly drawn) [I-2375, Ac-PL3-Asp-Npg-B5-Asp-Asp-Ala-Ala-Phe-Leu-PyrS2-3Thi-BztA-[3C]TriAzLys-NH2]
5 | 0.246 | CC(=O)N1CCC[C@]12CC=CCCCC1(CCCC=CCCCOC(=O)N3CC[C@@](C(=O)N[C@@H](Cc4ccccc4C(F)(F)F)C(=O)N[C@@H](Cc4csc5ccccc45)C(=O)N[C@@H](CCC(N)=O)C(=O)N[C@@H](CC(C)C)C(=O)N[C@H](C(N)=O)C(C)C)(C3)NC(=O)[C@H](CC(C)C)NC(=O)[C@H](Cc3ccccc3)NC(=O)[C@H](C)NC(=O)[C@H](C)NC(=O)[C@H](Cc3cccc(C(=O)O)c3)NC(=O)[C@H](CC(=O)O)NC1=O)NC(=O)[C@H](CC(C)(C)C)NC(=O)[C@H](CC(=O)O)NC2=O (stereo partly drawn) [I-2379, Ac-PL3-Asp-Npg-B5-Asp-3COOHF-Ala-Ala-Phe-Leu-PyrS2-2F3MeF-BztA-Gln-Leu-Val-NH2]
7.1 | 0.12 | CC(=O)N1CCC[C@]12CC=CCCCC1(CCCC=CCCCOC(=O)N3CC[C@@](C(=O)N[C@@H](Cc4ccccc4C(F)(F)F)C(=O)N[C@@H](Cc4csc5ccccc45)C(=O)N[C@@H](CCC(N)=O)C(=O)N[C@@H](CC(C)C)C(=O)NC4(C(N)=O)CCCC4)(C3)NC(=O)[C@H](CC(C)C)NC(=O)[C@H](Cc3ccccc3)NC(=O)[C@H](C)NC(=O)[C@H](C)NC(=O)[C@H](Cc3cccc(C(=O)O)c3)NC(=O)[C@H](CC(=O)O)NC1=O)NC(=O)[C@H](CC(C)(C)C)NC(=O)[C@H](CC(=O)O)NC2=O (stereo partly drawn) [I-2387, Ac-PL3-Asp-Npg-B5-Asp-3COOHF-Ala-Ala-Phe-Leu-PyrS2-2F3MeF-BztA-Gln-Leu-CyLeu-NH2]
8.6 | 0.461 | CC(=O)N1CCC[C@]12CC=CCCCC1(CCCC=CCCCOC(=O)N3CC[C@@](C(=O)N[C@@H](Cc4ccccc4C(F)(F)F)C(=O)N[C@@H](Cc4csc5ccccc45)C(=O)N[C@@H](CCC(N)=O)C(=O)N[C@@H](CC(C)C)C(=O)N[C@@H](Cc4ccc(O)cc4)C(N)=O)(C3)NC(=O)[C@H](CC(C)C)NC(=O)[C@H](Cc3ccccc3)NC(=O)[C@H](C)NC(=O)[C@H](C)NC(=O)[C@H](Cc3cccc(C(=O)O)c3)NC(=O)[C@H](CC(=O)O)NC1=O)NC(=O)[C@H](CC(C)(C)C)NC(=O)[C@H](CC(=O)O)NC2=O (stereo partly drawn) [I-2392, Ac-PL3-Asp-Npg-B5-Asp-3COOHF-Ala-Ala-Phe-Leu-PyrS2-2F3MeF-BztA-Gln-Leu-Tyr-NH2]
8.3 | 0.187 | CC(=O)N1CCC[C@]12CC=CCCCC1(CCCC=CCCCOC(=O)N3CC[C@@](C(=O)N[C@@H](Cc4ccccc4C(F)(F)F)C(=O)N[C@@H](Cc4csc5ccccc45)C(=O)N[C@@H](CCC(N)=O)C(=O)N[C@@H](CC(C)C)C(=O)N[C@H](CC(C)C)C(N)=O)(C3)NC(=O)[C@H](CC(C)C)NC(=O)[C@H](Cc3ccccc3)NC(=O)[C@H](C)NC(=O)[C@H](C)NC(=O)[C@H](Cc3cccc(C(=O)O)c3)NC(=O)[C@H](CC(=O)O)NC1=O)NC(=O)[C@H](CC(C)(C)C)NC(=O)[C@H](CC(=O)O)NC2=O (stereo partly drawn) [I-2396, Ac-PL3-Asp-Npg-B5-Asp-3COOHF-Ala-Ala-Phe-Leu-PyrS2-2F3MeF-BztA-Gln-Leu-dLeu-NH2]
7.8 | 0.053 | CC(=O)N1CCC[C@]12CC=CCCCC1(CCCC=CCCCOC(=O)N3CC[C@@](C(=O)N[C@@H](Cc4ccccc4C(F)(F)F)C(=O)N[C@@H](Cc4csc5ccccc45)C(=O)N[C@@H](CCC(N)=O)C(=O)N[C@@H](CC(C)C)C(=O)N[C@@H](C(N)=O)[C@H](C)O)(C3)NC(=O)[C@H](CC(C)C)NC(=O)[C@H](Cc3ccccc3)NC(=O)[C@H](C)NC(=O)[C@H](C)NC(=O)[C@H](Cc3cccc(C(=O)O)c3)NC(=O)[C@H](CC(=O)O)NC1=O)NC(=O)[C@H](CC(C)(C)C)NC(=O)[C@H](CC(=O)O)NC2=O (stereo partly drawn) [I-2397, Ac-PL3-Asp-Npg-B5-Asp-3COOHF-Ala-Ala-Phe-Leu-PyrS2-2F3MeF-BztA-Gln-Leu-dThr-NH2]
> 20 | 0.016 | C#CC(=O)N1CCC[C@]12CC=CCCCC1(CCCC=CCCCOC(=O)N3CC[C@@](C(=O)N[C@@H](Cc4ccsc4)C(=O)N[C@@H](Cc4csc5ccccc45)C(=O)N[C@@H](Cc4c[nH]cn4)C(N)=O)(C3)NC(=O)[C@H](CCC(N)=O)NC(=O)[C@H](Cc3ccccc3)NC(=O)[C@H](C)NC(=O)[C@H](C)NC(=O)[C@H](CC(=O)O)NC(=O)[C@H](CC(=O)O)NC1=O)NC(=O)[C@H](CC(C)(C)C)NC(=O)[C@H](CC(=O)O)NC2=O (stereo partly drawn) [I-2402, PropynOH-PL3-Asp-Npg-B5-Asp-Asp-Ala-Ala-Phe-Gln-PyrS2-3Thi-BztA-His-NH2]
> 20 | 0.012 | C#CC(=O)N1CCC[C@]12CC=CCCCC1(CCCC=CCCCOC(=O)N3CC[C@@](C(=O)N[C@@H](Cc4ccccc4Cl)C(=O)N[C@@H](Cc4csc5ccccc45)C(=O)N[C@@H](C)C(N)=O)(C3)NC(=O)[C@H](CC(C)C)NC(=O)[C@H](Cc3ccccc3)NC(=O)[C@H](C)NC(=O)[C@H](C)NC(=O)[C@H](Cc3cccc(C(=O)O)c3)NC(=O)[C@H](CC(=O)O)NC1=O)NC(=O)[C@H](CC(C)(C)C)NC(=O)[C@H](CC(=O)O)NC2=O (stereo partly drawn) [I-2403, PropynOH-PL3-Asp-Npg-B5-Asp-3COOHF-Ala-Ala-Phe-Leu-PyrS2-2C1F-BztA-Ala-NH2]
> 20 | 0.138 | CC(=O)N1CCC[C@]12CC=CCCCC1(CCCC=CCCCOC(=O)N3CC[C@@](C(=O)N[C@@H](Cc4ccsc4)C(=O)N[C@@H](Cc4csc5ccccc45)C(=O)N[C@@H](CCC(N)=O)C(N)=O)(C3)NC(=O)[C@H](CCCNC(=N)N)NC(=O)[C@H](Cc3ccccc3)NC(=O)[C@H](C)NC(=O)C(C)(C)NC(=O)[C@H]([C@@H](C)O)NC(=O)[C@H](CC(N)=O)NC1=O)NC(=O)[C@H](CC(C)(C)C)NC(=O)[C@H](CC(=O)O)NC2=O (stereo partly drawn) [I-2407, Ac-PL3-Asp-Npg-B5-Asn-Thr-Aib-Ala-Phe-Arg-PyrS2-3Thi-BztA-Gln-NH2]
50 | 0.397 | CC(=O)N1CCC[C@]12CC=CCCCC1(CCCC=CCCCOC(=O)N3CC[C@@](C(=O)N[C@@H](Cc4ccsc4)C(=O)N[C@@H](Cc4csc5ccccc45)C(=O)N[C@@H](CCC(N)=O)C(N)=O)(C3)NC(=O)[C@H]([C@@H](C)O)NC(=O)[C@H](Cc3ccccc3)NC(=O)[C@H](C)NC(=O)C(C)(C)NC(=O)[C@H]([C@@H](C)O)NC(=O)[C@H](CC(N)=O)NC1=O)NC(=O)[C@H](CC(C)(C)C)NC(=O)[C@H](CC(=O)O)NC2=O (stereo partly drawn) [I-2409, Ac-PL3-Asp-Npg-B5-Asn-Thr-Aib-Ala-Phe-Thr-PyrS2-3Thi-BztA-Gln-NH2]
> 20 | 0.304 | CC(=O)N1CCC[C@]12CC=CCCCC1(CCCC=CCCCOC(=O)N3CC[C@@](C(=O)N[C@@H](Cc4ccsc4)C(=O)N[C@@H](Cc4csc5ccccc45)C(=O)N[C@@H](CCC(N)=O)C(N)=O)(C3)NC(=O)[C@H](Cc3c[nH]cn3)NC(=O)[C@H](Cc3ccccc3)NC(=O)[C@H](C)NC(=O)C(C)(C)NC(=O)[C@H]([C@@H](C)O)NC(=O)[C@H](CC(N)=O)NC1=O)NC(=O)[C@H](CC(C)(C)C)NC(=O)[C@H](CC(=O)O)NC2=O (stereo partly drawn) [I-2410, Ac-PL3-Asp-Npg-B5-Asn-Thr-Aib-Ala-Phe-His-PyrS2-3Thi-BztA-Gln-NH2]
> 20 | 0.007 | CC(=O)N1CCC[C@]12CC=CCCCC1(CCCC=CCCCOC(=O)N3CC[C@@](C(=O)N[C@@H](Cc4ccsc4)C(=O)N[C@@H](Cc4csc5ccccc45)C(=O)N[C@@H](Cc4c[nH]cn4)C(N)=O)(C3)NC(=O)[C@H](CC(N)=O)NC(=O)[C@H](Cc3ccccc3)NC(=O)[C@H](C)NC(=O)C(C)(C)NC(=O)[C@H]([C@@H](C)O)NC(=O)[C@H](CC(N)=O)NC1=O)NC(=O)[C@H](CC(C)(C)C)NC(=O)[C@H](CC(=O)O)NC2=O (stereo partly drawn) [I-2414, Ac-PL3-Asp-Npg-B5-Asn-Thr-Aib-Ala-Phe-Asn-PyrS2-3Thi-BztA-His-NH2]
